Structures can show the parent of a compound that is named as a salt.
Columns and labels:
[1] = system: NCI-H292 lung cancer cells; test: FDA drug screening, complete media vs cholesterol-free media with simvastatin (TABLE 2); format: cell-based, human; settings: for Cholesterol-free media + simvastatin (0.04 μM) / Complete Media: NCI-H292 cells
[2] = system: NCI-H292 lung cancer cells; test: FDA drug screening, complete media vs cholesterol-free media without statin (TABLE 1); format: cell-based, human
[3] = cholesterol-free media with simvastatin 0.04 μM, cell growth value in FDA drug screen
[4] = complete media, cell growth value in FDA drug screen
[5] = complete media minus cholesterol-free media + simvastatin, >0 enhanced anti-cancer activity, about 0 neutral, <0 antagonist
[6] = Complete minus Cholesterol-free; >0 enhanced anti-cancer activity, about 0 neutral, <0 antagonist
[7] = NCI-H292 cells, cholesterol-free media without statin
[8] = drug in cholesterol-free media with simvastatin 0.04 μM
[9] = complete media vs cholesterol-free media + simvastatin (0.04 μM), […]
[10] = NCI-H292 cells, cholesterol-free media without statin, FDA drug library screen
[11] = NCI-H292 cells, complete media, FDA drug library screen
[12] = complete vs cholesterol-free media; […]
[13] = complete vs cholesterol-free media; >0 enhanced anti-cancer activity, about 0 neutral, <0 antagonist
[14] = complete vs cholesterol-free media; greater than 0 enhanced anti-cancer activity, about 0 neutral, below 0 antagonists
[15] = FDA drug library screen, cholesterol-free media with simvastatin 0.04 μM
[16] = FDA drug library screen, complete media
[17] = cholesterol-free media with simvastatin 0.04 μM, FDA drug library screen (TABLE 2)
[18] = complete media, FDA drug library screen (TABLE 2)
[19] = complete media minus cholesterol-free media + simvastatin (0.04 μM), >0 enhanced anti-cancer activity, about 0 neutral, <0 antagonist

Compound | Cholesterol-free media + simvastatin (0.04 μM) [1, 3] | Complete Media [1, 4] | Difference [1, 5] | Difference [2, 6] | Cholesterol-free [2, 7] | Complete ([2]; NCI-H292 cells, complete media) | Cholesterol-free [2, 10] | further results
COc1ccc(CCO[C@@H]2CCCC[C@H]2N2CC[C@@H](O)C2)cc1OC [Vernakalant (Hydrochloride)] | 1.555 | 1.614 | 0.06 | −0.26 | 1.252 | 0.9876 |  | 
CN1C(=O)OC(C)(C)C1=O [Trimethadione] | 1.017 | 1.08 | 0.06 | −0.23 | 1.085 | 0.857 |  | 
NC12CC3CC(CC(C3)C1)C2 [Amantadine (hydrochloride)] |  |  |  |  |  |  | 0.9565 | Cholesterol-free media + simvastatin (0.04 μM) [1, 8]: 1.14; Complete Media ([1]; drug in complete media): 0.9614; Difference [1, 9]: −0.18; Complete [2, 11]: 1.419; Difference [2, 12]: 0.46
CC(=O)Oc1c(C)c(C)c2c(c1C)CCC(C)(CCC[C@H](C)CCC[C@H](C)CCCC(C)C)O2 (stereo partly drawn) [D-α-Tocopherol acetate] | 0.8974 | 1.003 | 0.11 |  |  |  | 0.7729 | Complete [2, 11]: 1.233; Difference [2, 13]: 0.46
O=C1c2c(O)cccc2Cc2cccc(O)c21 [Dithranol] | 0.8476 | 0.9249 | 0.08 |  | 1.314 | 0.9897 |  | Difference [2, 14]: −0.32
CN1C(=O)CCS(=O)(=O)C1c1ccc(Cl)cc1 (centres unmarked) [Chlormezanone] |  |  |  |  |  |  | 0.6871 | Cholesterol-free media + simvastatin (0.04 μM) ([1]; FDA library drug in cholesterol-free media with simvastatin 0.04 μM): 1.449; Complete Media ([1]; FDA library drug in complete media): 1.114; Difference [1, 9]: −0.34; Complete [2, 11]: 0.9881; Difference [2, 12]: 0.30
Cc1c(C(=O)NN2CCCCC2)nn(-c2ccc(Cl)cc2Cl)c1-c1ccc(Cl)cc1 [Rimonabant (Hydrochloride)] | 0.8204 | 0.8385 | 0.02 |  | 1.291 | 0.882 |  | Difference [2, 14]: −0.41
CC(=O)N1CCN(c2ccc(OCC3COC(Cn4ccnc4)(c4ccc(Cl)cc4Cl)O3)cc2)CC1 (centres unmarked) [Ketoconazole] |  |  | 0.60 |  | 1.003 | 0.6148 |  | Cholesterol-free media + simvastatin (0.04 μM) [1, 15]: 0.2012; Complete Media [1, 16]: 0.801; Difference [2, 14]: −0.39
CC(C)(O)CNc1nc(Nc2ccnc(C(F)(F)F)c2)nc(-c2cccc(C(F)(F)F)n2)n1 [Enasidenib] | 0.8158 | 0.8552 | 0.04 | −0.30 | 1.312 | 1.013 |  | 
CCCN1CCCC[C@H]1C(=O)Nc1c(C)cccc1C [Ropivacaine] |  |  |  | −0.20 | 1.098 | 0.8949 |  | Cholesterol-free media + simvastatin (0.04 μM) [1, 8]: 0.9386; Complete Media ([1]; drug in complete media): 0.7628; Difference ([1]; complete media vs cholesterol-free media + simvastatin (0.04 μM), >0 enhanced anti-cancer activity, about 0 neutral, <0 antagonist): −0.18
Cn1c(=O)c2[nH]c(Br)nc2n(C)c1=O [Pamabrom] | 0.9207 | 0.9433 | 0.02 |  |  |  |  | Difference ([2]; Complete minus Cholesterol-free; greater than 0 enhanced anti-cancer activity, about 0 neutral, below 0 antagonist): −0.16; Cholesterol-free ([2]; NCI-H292 cells, FDA drug library screen, cholesterol-free media without statin): 0.9285; Complete ([2]; NCI-H292 cells, FDA drug library screen, complete media): 0.7717
Ribociclib succinate |  |  |  | −0.23 | 0.9857 | 0.7555 |  | Cholesterol-free media + simvastatin (0.04 μM) [1, 17]: 0.606; Complete Media [1, 18]: 0.6094; Difference [1, 19]: 0.00
O=C1OCCN1/N=C/c1ccc([N+](=O)[O-])o1 [Furazolidone] |  |  |  |  |  |  | 0.797 | Cholesterol-free media + simvastatin (0.04 μM) [1, 17]: 0.938; Complete Media [1, 18]: 0.9029; Difference [1, 19]: −0.04; Difference [2, 13]: 0.35
c1ccc2[nH]c(-c3cscn3)nc2c1 [Thiabendazole] |  |  | 0.23 |  |  |  | 0.802 | Cholesterol-free media + simvastatin (0.04 μM) [1, 15]: 0.9537; Complete Media [1, 16]: 1.187; Complete [2, 11]: 1.484; Difference [2, 13]: 0.68
